Assay results published in US6593511B1, “Models of chronic and acute inflammatory diseases” (Bioseek, Inc., priority 2000, dated 2003).

Legend:
psoriatic scid/scid mice = assay: Treatment of established chronic skin inflammation (psoriasis) in scid/scid mice after transfer of CD4+/CD25- T cells and LPS; ear thickness and histology; format: in vivo, mouse
From the text: Mice. Female Balb/c mice (donor mice) were purchased from Jackson Labs (Bar Harbor, Me.) or similar source, and C.B-17/Icr scid/scid (recipient mice) were purchased from Taconic (Germantown, N.Y.) or Charles River. All mice were housed in a specific pathogen free environment and were used between 4-8 wk of age. Mice were housed 2-5 per microisolator. All scid/scid mice were handled with gloves under a class II hood, fed sterile food and water ad libitum, and maintained in sterilized microisolators that are changed twice weekly. Donor mice were housed in conventional cages that were changed weekly.
Induction of chronic skin inflammation. Briefly, splenocytes were collected from 5-10 week old donor mice (Balb/c) and donor population was either enriched for CD4+ and depleted of CD25+ cells, or depleted of CD25+ cells only. The collected cell population was injected subcutaneously (s.c.) into C.B-17/Icr scid/scid mice, aged 4-8 weeks (usually 3×10^5 to 5×10^5 cells per mouse in 200-400 μL). […]
Cell Selection: Balb/c mouse spleens were collected and homogenized by pressing through 100 μ cell strainer (Falcon) and suspended in cold PBS supplemented with 10% FBS. […] The resultant cell quantities were 5-8 million cells per spleen. […]
The thickness of the skin on the ear was measured using a Dyer micrometer. […]

scid/scid mice = assay: Effect of co-factors on disease induction in the scid/scid CD4+/CD25- transfer model; format: in vivo, mouse; conditions: 20 μg s.c. on day one after cell transfer
Description: Induction of chronic skin inflammation. Briefly, splenocytes were collected from 5-10 week old donor mice (Balb/c) and donor population was either enriched for CD4+ and depleted of CD25+ cells, or depleted of CD25+ cells only. The collected cell population was injected subcutaneously (s.c.) into C.B-17/Icr scid/scid mice, aged 4-8 weeks (usually 3×10^5 to 5×10^5 cells per mouse in 200-400 μL). A systemic (s.c., i.p. or i.v.) injection of an immuno-modulating agent was given 24 hours following cell transfer. Alternatively, these co-injections were given at the same time to one week after. The co-injection was, alternatively, repeated every other day or once a week for the entire course of the experiment.
After 24 hours all recipient mice were given a co-injection of 20 μg LPS (or 10 μg SEB) s.c. Disease causing T cells then proliferated and began to induce inflammation over a period of 4 weeks
The thickness of the skin on the ear was measured using a Dyer micrometer. The micrometer was first modified to better perform in the measurement of soft tissue. The contact pads are reduced to 4 mm, and the spring tension is reduced to <3 lbs.
Co-factor injections are important for their mitogenic properties. […]
The effect of different co-factors on disease induction was assessed. […]

| Substance | skin thickness after treatment (psoriatic scid/scid mice; after 8 days of 40 mg/kg twice/day, p=2.01×10^−6) [μm] | skin thickness before treatment (psoriatic scid/scid mice; baseline before 40 mg/kg twice/day for 8 days) [μm] | incidence of disease (scid/scid mice; 5/5) [%] | average ear thickness (scid/scid mice; week 7, n=5 mice, +/- SEM, 30 μm+/−1.2 without co-factor, p=3.6×10^−3) [μm] |
| --- | --- | --- | --- | --- |
| methylprednisone | 22.4 | 33.7 |  |  |
| lipopolysaccharide [LPS] |  |  | 100 | 36.4 |
